This note sets out measurements from patent US6825348B2, “Antiviral compounds” (Academia Sinica, priority 2002, dated 2004).

In this assay the target is PRPP synthetase (UniProt P0A717). In words: PRPP synthetase reaction, conversion to diphosphates and inhibition of AMP phosphorylation. It counts as biochemical. The protocol:
Enzymatic Conversion of Acyclic Nucleoside Phosphonates and Nucleotide 5′-Monophosphate Analog to Their Antivirally Active Diphosphates (Triphosphate Equivalents). Substrate affinities of acyclic nucleoside phosphonates 4, 20, 21, and dinucleotide analog 24 for PRPP synthetase as well as their inhibitory effect against the enzyme were evaluated according to the established procedures. See, e.g., Balzarini et al. (1991) J. Biol. Chem. 266: 8686-8689 and references cited therein. The assays were then terminated after 4 h by the addition of MeOH. HPLC on an anion-exchange Partisphere column was used to analyze the formation of […] 21pp, PMEApp, 4pp, 20pp, and 24pp.

Setting [1] is: conversion to diphosphate by PRPP synthetase.

With `Nc1ncnc2c1ncn2[C@@H]1O[C@H](COP(=O)(O)O)[C@@H](O)[C@H]1O` [AMP 21, adenosine 5′-monophosphate, reference compound], the Vmax amounted to 14.270 μmol/unit/h under setting [1] and 14 (phosphorylation by PRPP synthetase, no unit in text).
`Nc1ncnc2ncn(CCOCP(=O)(O)O)c12` [Compound 20, 7-[2-(Phosphonomethoxy)ethyl]adenine]: the “substrate affinity for PRPP synthetase, times less than that of PMEA 4” value stood at 4 times. For the same compound, the Vmax under setting [1] was 0.013 μmol/unit/h.
As for `Nc1ncnc2c1ncn2CCOCP(=O)(O)O` [PMEA 4, 9-[2-(phosphonomethoxy)ethyl]adenine, reference compound], the Vmax under setting [1] is 0.096 μmol/unit/h.
